# Measurements published in patent US10039741B2, “Use of delta tocopherol for the treatment of lysosomal storage disorders” (The United States of America, as represented by the …, priority 2010, dated 2018).
# How the values were obtained:
# NPCD fibroblasts = assay: Lysotracker staining assay (lysosome size); type: cell-based, human; details: NPCD fibroblasts
# Experimental: Lysotracker is fluorescent dye that stains acidic compartments in live cells and is well-retained after aldehyde fixation. We have optimized a lysotracker staining assay to visualize the enlarged lysosome size in the NPC skin fibroblasts by applying appropriate concentration of lysotracker dye in comparison with these normal fibroblast cells. Cells were seeded at 8000 cells/well in 100 μl medium in a black/clear bottom, tissue culture treated plate and cultured overnight or in a dedicated time. The cells were live-stained with 100 u/well 50 nM Lysotracker Red-99 dye (Invitrogen) dissolved medium at 37° C. for 1 hr followed by two-times plate wash with PBS buffer using the plate-inverted centrifugation method. The plate was then added with 100 μl/well 3.2% formaldehyde and 1 μg/ml Hoechst 33342 (Invitrogen) in PBS and incubated at room temperature for 30 minutes. After three times of plate wash with PBS buffer, samples were stored at 4° C. until imaging. Samples were photographed using an IN Cell Analyzer 1000 (GE Healthcare) with a 20× objective equipped with CCD camera. DAPI filter and TRITC filter were used to visualize Hoechst and Lysotracker red, respectively. The images were processed by Adobe Photoshop.
# [1] = test system: NPC patient-derived skin fibroblasts; assay: Amplex red cholesterol assay (free cholesterol); type: cell-based, human; details: NPCD fibroblasts
# Description: Free cholesterol accumulation in cells is a hallmark of NPC disease. The Amplex red cholesterol assay was used to screen an approved drug library in the NPC patient-derived skin fibroblasts that have free cholesterol accumulation in late endosome and lysosome. […] We then show δ-tocopherol in the filipin cholesterol staining assay, a method used clinically for NPCD diagnosis. […] Lysosome size is usually enlarged in the NPCD cells using a lysotracker staining assay.
# The free cholesterol level in these cells was then measured by a cholesterol oxidase coupled HRP/amplex red detection method with a commercial available kit (Invitrogen). The cells were seeded to black, tissue culture-treated 1536-well plates (Greiner Bio-One, Monroe, N.C.) at 800 cells/well in 5 μl medium by a Multidrop Combi dispenser (Thermo Scientific, Waltham, Mass.) and cultured for 24 hours. The assay plates were added with 23 nl/well of compound DMSO solution using a pintool station (Kalypsys, San Diego, Calif.) and cultured for 3 days. The 1536-well assay plate was washed by a plate-inverted centrifugation method that removing medium by centrifuging plates upside down against a stack of paper towel at 1000 rpm for 1 min followed by addition of 7 μl/well PBS buffer, repeating for two times. The PBS buffer was added with a 45 degree angled dispenser (Kalypsys) or a Multi-Drop Combi dispenser set at medium speed to reduce disturbance to the cells. After the cell wash, 2.5 μl/well of detection mixture from the kit was added followed by 1 hour incubation at 37° C. With the addition of the detection mixture, the cells were lysed by the detergent containing buffer and free cholesterols in cell lysate were oxidized by cholesterol oxidase to produce H2O2 which reacting with amplex red dye in the presence of horseradish peroxidase to yield red fluorescence signal. A ViewLux plate reader (PerkinElmer, Boston, Mass.) was used to measure the fluorescent signal in assay plates with the excitation of 573 nm and emissions of 610 nm.
# NPC mouse model = details: cited from earlier work
# NPC cat model = details: cited from earlier work
# Wolman disease cells = assay: Amplex-red cholesterol assay (total cholesterol), combination therapy; type: cell-based, human
# Description: (1) Amplex-red cholesterol assay. This biochemical assay (Invitrogen) uses cholesterol oxidase and a HRP-Amplex-re reporting system to measure the free cholesterol level in cells. With the addition of acid lipase to this assay, that hydrolyzes cholesterol ester to free cholesterol, the level of total cholesterol in cells including the cholesterol ester can be measured. This assay was used for detecting the total cholesterol level of in fibroblasts from patients with Wolman disease.
# wild type cells = assay: Lipid measurement by mass spectrometry (GC/MS); type: cell-based, human; details: wild type cells; 80 μM α-tocopherol or 40 uM δ-tocopherol for 5 days
# Experimental: (§1) Effects of δ-tocopherol and α-tocopherols on (FIG. 4A) free cholesterol, (FIG. 4B) cholesterol ester and (FIG. 4C) sphingomyelin in NPC cells. NPC or WT cells were treated with DMSO, 80 μM α-tocopherol or 40 uM δ-tocopherol for 5 days. Cell pellets were collected and extracted for lipids. FC EC and sphingomyelin levels were measured by GC/MS. (FIG. 4D) Effects of δ-tocopherols and α-tocopherols on cholesterol efflux.
# (§2) Cell pellets were collected from 100-mm dishes and washed once with 10 ml PBS. Proteins were assayed using the BCA kit (Sigma-Aldrich) and lipids were extracted by modified Bligh and Dyer procedure (29) from the cells. Internal standards were added based on protein concentration that included N12:0 sphingomyelin, D7-cholesterol, 17:0 cholesterol ester (Avanti Polar Lipids, Inc). A portion of the lipid extract was used for detection of sphingomyelins using direct infusion mass spectrometric assay with lithium hydroxide for facilitating ionization and the rest was used to convert cholesterol and its ester into acetate by derivatization. The derivatization was performed by treating the dried crude lipid extract with solutions of 1 M acetic acid with 1 M DMAP in chloroform and 1 M EDC in chloroform at 50° C. for 2 hours. The derivatized product was extracted with hexane and analyzed by direct infusion mass spectrometric assay with 5% ammonium hydroxide for facilitating ionization.
# (§3) A triple-quadrupole mass spectrometer equipped with an electrospray was used for analysis of lipids in positive mode. Sphingomyelins, cholesterol and cholesterol esters were detected by neutral loss scan of 213 (collision energy: 50 V), neutral loss scan of 77 (collision energy: 14 V) and precursor ion scan of m/z 369 (collision energy: 14 V) respectively. Data processing of mass spectrometric analyses including ion peak selection, data transferring, peak intensity comparison and quantitation was conducted using self-programmed Microsoft Excel macros (30).
# NPC fibroblasts = assay: Lipid measurement by mass spectrometry (GC/MS); type: cell-based, human; details: 80 μM α-tocopherol or 40 uM δ-tocopherol for 5 days
# Experimental: as §1, §2, §3
# [2] = human plasma, physiological level; cited from earlier work
compound,measurement,setting,value
vitamin D [reference compound],enlarged lysosome size,NPCD fibroblasts,not active
same,cholesterol amount (cholesterol reduction),[1],not active
OC[C@H]1O[C@@H]2O[C@H]3[C@H](O)[C@@H](O)[C@@H](O[C@H]4[C@H](O)[C@@H](O)[C@@H](O[C@H]5[C@H](O)[C@@H](O)[C@@H](O[C@H]6[C@H](O)[C@@H](O)[C@@H](O[C@H]7[C@H](O)[C@@H](O)[C@@H](O[C@H]8[C@H](O)[C@@H](O)[C@@H](O[C@H]1[C@H](O)[C@H]2O)O[C@@H]8CO)O[C@@H]7CO)O[C@@H]6CO)O[C@@H]5CO)O[C@@H]4CO)O[C@@H]3CO [Beta-cyclodextrin],cholesterol accumulation,NPC mouse model,reduce cholesterol accumulation
same,life span,NPC mouse model,increase in life span
same,cholesterol accumulation,NPC cat model,reduce cholesterol accumulation
same,life span,NPC cat model,increase in life span
"methyl-beta-cyclodextrin [MBCD, reference compound]",cholesterol level,Wolman disease cells; MBCD at 0.3 mM alone,time dependent reduction
vitamin K [reference compound],enlarged lysosome size,NPCD fibroblasts,not active
same,cholesterol amount (cholesterol reduction),[1],not active
"CC(=O)N[C@@H](CS)C(=O)O [NAc, N-acetyl cysteine, reference compound]",enlarged lysosome size,NPCD fibroblasts,did not have any effect
same,cholesterol amount (cholesterol reduction),[1],did not have any effect
"Cc1c(C)c2c(c(C)c1O)CC[C@@](C)(CCC[C@H](C)CCC[C@H](C)CCCC(C)C)O2 [α-tocopherol, reference compound]",amount of cholesterol ester,wild type cells,significantly reduced
same,sphingomyelin amount,wild type cells,not significantly changed
same,amount of cholesterol ester,NPC fibroblasts; NPCD cells,significantly reduced
same,sphingomyelin amount,NPC fibroblasts; NPCD cells,not significantly changed
same,free cholesterol level,NPC fibroblasts; NPCD fibroblasts,not statistically different
same,"cholesterol level, sole therapy",Wolman disease cells; 40 μM delta-tocopherol or 80 μM alpha-tocopherol alone,cholesterol reduction effect
same,"cholesterol level, combination",Wolman disease cells; alpha-tocopherol 20 uM combined with 10 μM MBCD,cholesterol reduction effect
same,plasma concentration,[2],~26 µM
"Cc1c(O)cc2c(c1C)O[C@](C)(CCC[C@H](C)CCC[C@H](C)CCCC(C)C)CC2 [γ-tocopherol, reference compound]",EC50,"[1]; Homo sapiens, Skin fibroblast, read-out: EC50, reduction of cholesterol accumulation",60 to 80 µM
"O=C1O[C@H]([C@@H](O)CO)C(O)=C1O [vitamin C, reference compound]",enlarged lysosome size,NPCD fibroblasts,not active
same,cholesterol amount (cholesterol reduction),[1],not active
